# Literature values in US20060141037A1, “Bilayer tablets of oxcarbazepine for controlled delivery and a process of preparation thereof” (J. B. Chemicals & Pharmaceuticals Ltd., priority 2004, published 2006).
# Experiments:
# [1] = test system: voltage-sensitive sodium channels; details: in vitro electrophysiological studies
# animal models = details: comparable to that of carbamazepine and phenytoin
solubility in water,SMILES,effect on voltage-sensitive sodium channels [1],antiepileptic activity in animal models (animal models)
practically insoluble in water,"NC(=O)N1c2ccccc2CC(=O)c2ccccc21 [Oxcarbazepine, 10,11-dihydro-10-oxo-5H-dibenz[b,f]azepine-5-carboxamide]",blockade of voltage-sensitive sodium channels,potent antiepileptic activity
–,"NC(=O)N1c2ccccc2CC(O)c2ccccc21 (centres unmarked) [MHD, 10,11-dihydro-10-hydro-carbamazepine]",blockade of voltage-sensitive sodium channels,potent antiepileptic activity
